Experimental data taken from paper PMC10424176, “Chamelogk: A Chromatographic Chameleonicity Quantifier to Design Orally Bioavailable Beyond-Rule-of-5 Drugs” (Journal of Medicinal Chemistry, 2023).
Entries after “also recorded” stand apart in the source; their conditions may differ. Like-named read-outs stand apart in the source and are kept apart here.

Legend:
physchem = assay type: physicochemical
Protocol: (§1) The mobile phases for every descriptor consisted of isocratic solutions of 20 mM ammonium acetate at pH 7.0 and acetonitrile at various percentages (see the specific descriptor). Small amounts of the 55 compounds were dissolved in buffer/acetonitrile mixtures (v/v) at concentrations ranging from 50 to 100 μg/mL. Subsequently, 10 μL of each solution (injection volume) was injected at an isocratic flow rate of 1 mL/min and analyzed at 30 °C (oven temperature). Chromatographic measurements were then analyzed in duplicate based on the specific chromatographic conditions of each descriptor.
BRlogD[39] required the injection of 55 samples into the X-Bridge column at 60% MeCN (predominant mobile phase constituent). The retention times and dead time (t0, baseline interference) were recorded, and the capacity factor log k’60 was calculated adapting eq 2. Lastly, BRlogD value was calculated from eq 3 [drawing 3] 3

[1] = Chamelogk, chromatographic chameleonicity descriptor (PLRP-S RP-HPLC); assay type: physicochemical; conditions: Exp. minus Ext. log k' PLRP-S at 100% MeCN; linear fit at 50, 60, 70% MeCN; 20 mM ammonium acetate pH 7.0; 30 °C
[2] = solubility range class; cited from earlier work
[3] = log kW^IAM and Δ log kW^IAM (IAM chromatography); assay type: physicochemical; conditions: for log kW^IAM: IAM column, extrapolated to 100% buffer from 10 to 50% MeCN, pH 7.0; for Δ log kW^IAM: polarity, from log kW^IAM and BRlogD (eq 4, 5)
Protocol: as §1, with “descriptor. […] The retention times of the samples were recorded, and the capacity factor was calculated for each mobile phase condition adapting eq 2, where t0 is the retention time of citric acid.” for “descriptor.”

[4] = oral activity; cited from earlier work
[5] = cited from earlier work
[6] = difference between maximum and minimum 3D-PSA among crystallized conformers; cited from earlier work
[7] = XBridge column, 60% MeCN, pH 7.0, read-out: BRlogD
[8] = XBridge Shield RP18 HPLC column, XBridge column, 60% MeCN, pH 7.0, read-out: BRlogD

Row | Structure (SMILES) | Chamelogk [1] | log kW^IAM [3] | Δ log kW^IAM [3] | chromatographic logD (physchem; pH 7) | chromatographic logD (physchem; [8]) | BRlogD (physchem; XBridge column, 60% MeCN, pH 7.0) | BRlogD (physchem; pH 7) | chromatographic logD (physchem; [7]) | LogS [2] | Abs. Route [4] | ChameLogD [5] | X-Ray Δ 3D-PSA [6]
1 | Cc1sc2c(c1C)C(c1ccc(Cl)cc1)=N[C@@H](CC(=O)Nc1ccc(OCCOCCOCCOCCNc3cccc4c3C(=O)N(C3CCC(=O)NC3=O)C4=O)cc1)c1nnc(C)n1-2 (some centres unmarked) [ARV-825] | 0.72 | 3.49 | 1.31 |  |  |  |  | 3.49 | Low range | orally active |  | 
2 | Cc1ncsc1-c1ccc(CNC(=O)[C@@H]2C[C@@H](O)CN2C(=O)[C@@H](NC(=O)COCCOCCOCCNC(=O)C[C@@H]2N=C(c3ccc(Cl)cc3)c3c(sc(C)c3C)-n3c(C)nnc32)C(C)(C)C)cc1 [MZ1] | 1.15 | 2.83 | 2.24 | 1.77 |  |  |  |  | Int. range | not orally bioavailable; also recorded: Non-oral |  | 
3 | COC(=O)N[C@H](C(=O)N[C@@H](Cc1ccccc1)[C@@H](O)CN(Cc1ccc(-c2ccccn2)cc1)NC(=O)[C@@H](NC(=O)OC)C(C)(C)C)C(C)(C)C [atazanavir] | 0.33 | 2.74 | 0.87 |  | 3.15 |  |  |  |  |  | 1.6 | 34
4 | Cc1ncsc1-c1ccc(CNC(=O)[C@@H]2C[C@H](O)CN2C(=O)[C@@H](NC(=O)COCCOCCOCCNC(=O)C[C@@H]2N=C(c3ccc(Cl)cc3)c3c(sc(C)c3C)-n3c(C)nnc32)C(C)(C)C)cc1 [cisMZ1] | 1.27 | 2.90 | 2.20 | 1.87 |  |  |  |  | Int. range | Non-oral |  | 
5 | CO[C@H]1C[C@@H]2CC[C@@H](C)[C@@](O)(O2)C(=O)C(=O)N2CCCC[C@H]2C(=O)O[C@H]([C@H](C)C[C@@H]2CC[C@@H](OCCO)[C@H](OC)C2)CC(=O)[C@H](C)/C=C(\C)[C@@H](O)[C@@H](OC)C(=O)[C@H](C)C[C@H](C)/C=C/C=C/C=C/1C [everolimus] | 0.45 | 4.15 | 0.71 | 4.86 |  |  |  |  |  |  | 1.7 | 
6 | Cc1c(O)cccc1C(=O)N[C@@H](CSc1ccccc1)[C@H](O)CN1C[C@H]2CCCC[C@H]2C[C@H]1C(=O)NC(C)(C)C [nelfinavir] | 0.74 | 2.69 | -0.63 |  | 4.73 | below 5 |  |  |  |  | 1.4 | 
7 | CCC[C@H](NC(=O)[C@@H]1[C@H]2CCC[C@H]2CN1C(=O)[C@@H](NC(=O)[C@@H](NC(=O)c1cnccn1)C1CCCCC1)C(C)(C)C)C(=O)C(=O)NC1CC1 [telaprevir] | 0.31 | 3.02 | 0.75 |  |  |  |  | 3.6 |  |  |  | 32

Second part, led by results:

Row | Chamelogk [1] | log kW^IAM [3] | Δ log kW^IAM [3] | chromatographic logD (physchem; pH 7) | chromatographic logD (physchem; [8]) | BRlogD (physchem; XBridge column, 60% MeCN, pH 7.0) | BRlogD (physchem; pH 7) | Structure (SMILES) | chromatographic logD (physchem; [7]) | LogS [2] | Abs. Route [4] | ChameLogD [5] | X-Ray Δ 3D-PSA [6]
8 | 0.43 | 3.35 | -1.62 | 6.52 |  |  |  | CC[C@@H]1/C=C(\C)C[C@H](C)C[C@H](OC)[C@H]2O[C@@](O)(C(=O)C(=O)N3CCCC[C@H]3C(=O)O[C@H](/C(C)=C/[C@@H]3CC[C@H](Cl)[C@H](OC)C3)[C@H](C)[C@@H](O)CC1=O)[C@H](C)C[C@@H]2OC [pimecrolimus] |  |  |  |  | 
9 | 0.67 | 3.02 | 1.02 | 3.29 |  |  |  | CC(C)c1nc(CN(C)C(=O)N[C@H](C(=O)N[C@@H](Cc2ccccc2)C[C@H](O)[C@H](Cc2ccccc2)NC(=O)OCc2cncs2)C(C)C)cs1 [ritonavir] |  |  |  | 1.6 | 53
10 | 1.23 | 3.44 | 1.85 |  |  |  | 2.85 | CC(C)(C)NC(=O)[C@@H]1C[C@@H]2CCCC[C@@H]2CN1C[C@@H](O)[C@H](Cc1ccccc1)NC(=O)[C@H](CC(N)=O)NC(=O)c1ccc2ccccc2n1 [saquinavir] |  |  |  |  | 21
11 | 0.25 | 3.96 | 0.42 | 4.97 |  |  |  | CO[C@H]1C[C@@H]2CC[C@@H](C)[C@@](O)(O2)C(=O)C(=O)N2CCCC[C@H]2C(=O)O[C@H]([C@H](C)C[C@@H]2CC[C@@H](O)[C@H](OC)C2)CC(=O)[C@H](C)/C=C(\C)[C@@H](O)[C@@H](OC)C(=O)[C@H](C)C[C@H](C)/C=C/C=C/C=C/1C [sirolimus] |  |  |  | 1.4 | 
12 | 0.23 |  |  |  |  |  |  | CO[C@H]1C[C@@H]2CC[C@@H](C)[C@@](O)(O2)C(=O)C(=O)N2CCCC[C@H]2C(=O)O[C@H]([C@H](C)C[C@@H]2CC[C@@H](OC(=O)C(C)(CO)CO)[C@H](OC)C2)CC(=O)[C@H](C)/C=C(\C)[C@@H](O)[C@@H](OC)C(=O)[C@H](C)C[C@H](C)/C=C/C=C/C=C/1C [temsirolimus] |  |  |  | 2 | 
